The text below walks through data of patent US20240174649A1, “CULLIN-RING E3 UBIQUITIN LIGASE 4 INHIBITOR COMPOUNDS AND METHODS OF THEIR USE” (ICAHN SCHOOL OF MEDICINE AT MOUNT SINAI, priority 2021, published 2024).

Assay [1] deals with T1, ROC1-CUL1 CTD (Homo sapiens (Human), UniProt Q13616). The assay can be described thus: Ligand binding by MST. As to the method: E3 ligase complex (˜2 nmol) was labeled with fluorescent dye using Monolith NT Protein Labeling Kit Red-NHS (Nanotemper) in the presence of 20 mM MES pH 6.0 and 150 mM NaCl. Excess dye was removed using the included gravity flow column and eluted in storage buffer containing 20 mM Tris-HCl, pH 7.4, 150 mM NaCl, and 10% glycerol. The fluorescent E3 complex (˜0.01-0.06 μM) was mixed with increasing amount of compound in a buffer (20 μl) that contains phosphate-buffered saline, 0.1% TWEEN-20 and 2% prionex. Following incubation at room temperature for 30 min, the reaction mixture loaded into premium coated capillaries and analyzed in the Monolith NT.115 machine (Nanotemper). Thermophoresis was recorded for each sample and binding curve was generated and Kd was calculated using the included software. For reactions where significant ligand specific fluorescence quenching occurred (verified by manufacturer's SDS Denaturation-test protocol), the initial fluorescence quenching data was used directly to calculate the binding curve and Kd.

For assay [2], the target named is T1, ROC1-CUL1 CTD. Description: FRET K48 di-Ub synthesis assay. It counts as biochemical. To be noted: for E3 inhibition: up to 80 μM. The method, then:
The high throughput screen (“HTS”) employed the FRET K48 di-Ub assay as established previously (Wu et al., “Suramin Inhibits Cullin-RING E3 Ubiquitin Ligases,” PNAS 113(14):E2011-2018 (2016), which is hereby incorporated by reference in its entirety) and was carried out at Memorial Sloan Kettering Cancer Center Core Screening Facility. For HTS, the assay was formatted using three reagent addition steps. Library compounds, stored in 10 mM stock plates (DMSO), were transferred into assay plates and each well contains a single compound at 100 μM in 1 μl 10% DMSO. The complete complement of proteins/enzymes (6.5 μl), containing Ub E1 (14 nM), E2 Cdc34 (124 nM), E3 ROC1-CUL1 CTD (0.2 μM), Ub C31-I555 (donor, 0.93 μM), and Ub C64-I647 (receptor, 1.62 μM), in the presence of 33 mM Tris-HCl (pH 7.4), 1.7 mM MgCl2, 0.33 mM DTT, and BSA (0.07 mg/ml), was added to each plate. The concentrations of all five proteins have been determined based on Km measurement as described previously (Wu et al., “Suramin Inhibits Cullin-RING E3 Ubiquitin Ligases,” PNAS 113(14):E2011-2018 (2016), which is hereby incorporated by reference in its entirety). To initiate ubiquitination, ATP (2.5 μl in 2.64 mM) was added and its final concentration was 0.66 mM. The concentration of ATP was set high to minimize identification of nucleotide analogues because the priority of the HTS is to find small molecule modulators specific for E3 ROC1-CUL1 CTD. In this setting, the concentration of compound and DMSO in a given well were 10 μM and 1%, respectively. After incubation at room temperature for 45 min, EDTA (30 mM) was added to terminate the reaction. The reaction was quantified based on the ratio of acceptor:donor fluorescence (excitation 515 nm; donor emission 570 nm; acceptor emission 670 nm) using a Victor high-throughput plate reader (Perkin Elmer).
(§1) The reaction mixture (15 μl) was assembled onto a 384-well microtiter plate. […] ATP (0.66 mM) was then added to the mix followed by a brief centrifugation to settle down the mixture. The resulting plate was incubated at 30° C. in the Synergy-H1 reader and the fluorescence signal was monitored. Ubiquitination was quantified based on the ratio of acceptor:donor fluorescence (excitation 515 nm; donor emission 570 nm, acceptor emission 670 nm).

The target of another assay is E3 (CUL1) (Homo sapiens (Human), UniProt Q13616). The assay can be described thus: E3 (CUL1) inhibition (Table 1). In kind it is biochemical. The method, then:
as §1

In another assay the target is E3 (CUL4) (Homo sapiens (Human), UniProt Q13619). Description: E3 (CUL4) inhibition (Table 1). In kind it is biochemical. As to the method:
The reaction was incubated for 5 min at 37° C. […] The reaction was incubated for 5 min at room temperature. In the second step (chase), the completed Cdc34b-Ub thiol ester reaction mixture was combined with one third of the completed mono-ubiquitination mixture. The final volume was adjusted to 10 μl with a mix that contained 50 mM Tris-HCl (pH 7.4), 0.5 mM DTT, 0.1 mg/ml of BSA, 5 mM MgCl2, and 2 mM ATP. Compounds were added where indicated. The chase reaction was incubated for 10 min at 37° C. The reaction products were separated by 4-20% SDS-polyacrylamide gel electrophoresis. The reaction scheme was identical to the one described above for FIGS. 12A-B. […] The reaction products, separated by SDS-PAGE, were visualized and analyzed by phospho-imaging using Typhoon 9500 scanner.

In another assay the test system is cancer cells. Description: Apoptosis, Annexin V flow cytometry. In kind it is cell-based. To be noted: Table 1. The method, then:
Cells (5×10^4) were seeded 24 hours before compound treatment. Compound was added to the culture media and cells were cultured with the compound for 48 hours. The treated cells were then transferred into 5 ml flow cytometry tubes and the well was washed once with PBS to collect any remaining cells. The cells were then pelleted at 500×g for 5 min with a Beckman CS-6KR centrifuge at 4° C. After removal of supernatant, the cells pellet was washed with Annexin V binding buffer (10 mM Hepes-NaOH, pH 7.4, 150 mM NaCl, 5 mM KCl, 1 mM MgCl2, and 1.8 mM CaCl2). Cells were pelleted once again and incubated in the dark with Annexin V-FITC (2 μg/ml) in binding buffer for 5 min then analyzed using LSRFortessa flow cytometer (BD).

The mark [3] stands for this setting: Table 9, read-out: E3 Binding Kd (MST with CUL1 CTD).
Where [4] appears, read: Table 9, read-out: IC50 (FRET CUL1 assay).
Setting [5] is: Table 5, MST, read-out: E3 binding Kd.

Like-named read-outs stand apart in the source and are kept apart here.

T1 sequence (Q13616 411-776): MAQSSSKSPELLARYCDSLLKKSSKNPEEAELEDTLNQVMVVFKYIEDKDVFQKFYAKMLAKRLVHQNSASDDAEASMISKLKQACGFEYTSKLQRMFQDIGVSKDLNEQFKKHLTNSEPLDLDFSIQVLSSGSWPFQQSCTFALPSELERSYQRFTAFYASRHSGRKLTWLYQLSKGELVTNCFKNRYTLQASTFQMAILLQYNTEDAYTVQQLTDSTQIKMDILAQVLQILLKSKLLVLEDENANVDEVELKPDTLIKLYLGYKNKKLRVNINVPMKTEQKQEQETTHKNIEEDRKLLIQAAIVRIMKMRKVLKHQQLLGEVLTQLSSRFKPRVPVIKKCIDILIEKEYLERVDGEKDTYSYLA
T1 sequence (P62877 whole entry partner): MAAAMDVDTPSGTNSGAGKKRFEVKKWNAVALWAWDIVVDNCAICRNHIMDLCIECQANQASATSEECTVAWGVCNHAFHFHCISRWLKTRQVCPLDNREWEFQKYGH
Chain of E3 (CUL1) (Q13616 whole entry): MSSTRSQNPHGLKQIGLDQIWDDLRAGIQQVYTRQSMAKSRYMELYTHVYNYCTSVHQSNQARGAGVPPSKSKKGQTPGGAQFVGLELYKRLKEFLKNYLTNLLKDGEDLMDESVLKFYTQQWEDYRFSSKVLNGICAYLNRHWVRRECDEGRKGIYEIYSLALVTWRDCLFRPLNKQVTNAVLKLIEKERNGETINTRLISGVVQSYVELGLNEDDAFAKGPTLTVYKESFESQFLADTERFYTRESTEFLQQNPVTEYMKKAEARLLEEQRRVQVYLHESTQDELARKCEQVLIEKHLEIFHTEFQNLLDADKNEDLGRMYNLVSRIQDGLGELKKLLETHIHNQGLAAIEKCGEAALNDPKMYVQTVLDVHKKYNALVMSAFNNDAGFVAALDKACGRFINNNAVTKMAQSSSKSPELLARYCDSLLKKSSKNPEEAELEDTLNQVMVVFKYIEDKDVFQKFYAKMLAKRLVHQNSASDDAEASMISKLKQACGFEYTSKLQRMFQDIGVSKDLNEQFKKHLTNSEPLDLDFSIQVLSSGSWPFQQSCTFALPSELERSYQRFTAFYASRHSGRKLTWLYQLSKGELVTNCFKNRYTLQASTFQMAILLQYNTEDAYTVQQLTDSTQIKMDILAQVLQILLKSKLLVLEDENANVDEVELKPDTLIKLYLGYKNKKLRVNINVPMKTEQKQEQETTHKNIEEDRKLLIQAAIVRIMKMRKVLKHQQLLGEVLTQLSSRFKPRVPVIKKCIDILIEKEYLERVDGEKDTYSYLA
Chain of E3 (CUL1) (P62877 whole entry partner): as the sequence (P62877 whole entry partner) above
Chain of E3 (CUL4) (Q13619 whole entry): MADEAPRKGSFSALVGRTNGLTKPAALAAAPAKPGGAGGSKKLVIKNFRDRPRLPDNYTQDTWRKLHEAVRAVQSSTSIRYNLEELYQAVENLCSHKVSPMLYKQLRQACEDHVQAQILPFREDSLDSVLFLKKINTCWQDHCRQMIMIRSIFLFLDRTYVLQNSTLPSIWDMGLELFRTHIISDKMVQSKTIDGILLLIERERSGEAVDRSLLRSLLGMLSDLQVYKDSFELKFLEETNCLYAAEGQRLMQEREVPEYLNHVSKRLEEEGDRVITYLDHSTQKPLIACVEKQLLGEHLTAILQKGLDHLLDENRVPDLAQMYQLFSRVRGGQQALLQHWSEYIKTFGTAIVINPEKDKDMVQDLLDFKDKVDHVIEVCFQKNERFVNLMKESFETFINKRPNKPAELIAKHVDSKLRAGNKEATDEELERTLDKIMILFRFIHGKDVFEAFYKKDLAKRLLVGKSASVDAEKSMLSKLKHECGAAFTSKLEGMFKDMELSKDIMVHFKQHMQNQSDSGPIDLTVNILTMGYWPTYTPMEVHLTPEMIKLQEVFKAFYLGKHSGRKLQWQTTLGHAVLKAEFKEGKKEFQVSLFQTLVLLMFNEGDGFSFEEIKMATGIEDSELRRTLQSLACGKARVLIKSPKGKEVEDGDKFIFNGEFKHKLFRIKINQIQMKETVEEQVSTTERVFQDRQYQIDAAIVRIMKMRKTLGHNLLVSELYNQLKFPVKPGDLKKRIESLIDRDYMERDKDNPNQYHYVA
Chain of E3 (CUL4) (P62877 whole entry partner): as the sequence (P62877 whole entry partner) above

`O=c1c(Oc2ccc(Br)cc2)c(C(F)(F)F)oc2c(O)c(O)ccc12`: on ROC1-CUL1 CTD [1] (setting [3]), the Kd amounted to 1.42 ± 0.26 µM. On ROC1-CUL1 CTD [2] (setting [4]), the IC50 was 3.5 µM.

In the case of `COc1ccc2c(=O)c(Oc3ccccc3)c(C)oc2c1OC` [#33-3, 7,8-dimethoxy-2-methyl-3-phenoxy-4H-chromen-4-one], on ROC1-CUL1 CTD [1] (setting [5]), the Kd was above 500 µM. Moreover, at ROC1-CUL1 CTD [2] (Table 5), the “E3 inhibition IC50” value is listed as “No inhibition”. Also, the E3 inhibition result on ROC1-CUL1 CTD [2] is “No inhibition”.

Regarding `O=c1c(Oc2ccc(Br)cc2)c(C(F)(F)F)oc2c(O)c(O)c(Br)cc12`, the Kd on ROC1-CUL1 CTD [1] (setting [3]) stood at 1.19 ± 0.36 µM. Also, the IC50 at ROC1-CUL1 CTD [2] (setting [4]) stood at 8.3 µM.

As for `O=c1c(Oc2ccccc2)c(C(F)(F)F)oc2c3c(ccc12)OCO3` [Compound 33-4, 7-phenoxy-8-(trifluoromethyl)-6H-[1,3]dioxolo[4,5-h]chromen-6-one], the Kd on ROC1-CUL1 CTD [1] (setting [5]) amounted to 19 µM. The IC50 on ROC1-CUL1 CTD [2] (Table 5, read-out: E3 inhibition IC50) is 80 µM.

With `CCCCn1cc(-c2c(C(F)(F)F)oc3c(O)c(O)ccc3c2=O)cn1` [MSSM-RJD-MM-007, 3-(1-butyl-1H-pyrazol-4-yl)-7,8-dihydroxy-2-(trifluoromethyl)-4H-chromen-4-one], the results for the EC50 on E3 (CUL1), on E3 (CUL4) and in the assay on cancer cells were 3.8 µM, above 10 µM and above 20 µM, respectively.

In the case of `COc1ccc2c(=O)c(-c3cnn(Cc4cccc(C(F)(F)F)c4Cl)c3)c(C(F)(F)F)oc2c1OC` [MSSM-RJD-MM-020], the values for the EC50 on E3 (CUL1), on E3 (CUL4) and in the assay with cancer cells were 53 µM, above 10 µM and above 20 µM, respectively.

Take `COc1ccc2c(=O)c(-c3cnn(C(C)C)c3)c(C(F)(F)F)oc2c1OC` [MSSM-RJD-MM-003, 3-(1-isopropyl-1H-pyrazol-4-yl)-7,8-dimethoxy-2-(trifluoromethyl)-4H-chromen-4-one]: the concentration for a half-maximal effect (EC50) at E3 (CUL1) is above 100 µM; on E3 (CUL4), above 10 µM; in the assay with cancer cells, above 20 µM.

On to `O=c1c(Oc2ccccc2Br)c(C(F)(F)F)oc2c(O)c(O)ccc12`, for which the Kd at ROC1-CUL1 CTD [1] (setting [3]) came to 1.95 ± 0.44 µM. The IC50 on ROC1-CUL1 CTD [2] (setting [4]) worked out at 2.7 µM.

`COc1ccc2c(=O)c(-c3cnn(Cc4ccccc4F)c3)c(C(F)(F)F)oc2c1OC` [MSSM-RJD-MM-016, 3-(1-(2-fluorobenzyl)-1H-pyrazol-4-yl)-7,8-dimethoxy-2-(trifluoromethyl)-4H-chromen-4-one]: the EC50 was above 100 µM on E3 (CUL1), above 10 µM on E3 (CUL4) and above 20 µM in the assay with cancer cells.

As for `O=c1c(Oc2ccccc2)c(C(F)(F)F)oc2c3c(ccc12)OCCO3` [#33-5, 8-phenoxy-9-(trifluoromethyl)-2,3-dihydro-7H-[1,4]dioxino[2,3-h]chromen-7-one], the Kd at ROC1-CUL1 CTD [1] (setting [5]) was found to be 48 µM. Moreover, the “E3 inhibition IC50” value on ROC1-CUL1 CTD [2] (Table 5) is “No inhibition”. Also, the E3 inhibition result at ROC1-CUL1 CTD [2] is “No inhibition”.

In the case of `COc1ccc2c(=O)c(-c3cnn(Cc4ccc(C(F)(F)F)cc4)c3)c(C(F)(F)F)oc2c1OC` [MSSM-RJD-MM-011, 7,8-dimethoxy-2-(trifluoromethyl)-3-(1-(4-(trifluoromethyl)benzyl)-1H-pyrazol-4-yl)-4H-chromen-4-one], the results for the EC50 at E3 (CUL1), at E3 (CUL4) and in the assay on cancer cells were above 100 µM, above 10 µM and above 20 µM, respectively.

On to `O=c1c(-c2ccnn2Cc2ccccc2)c(C(F)(F)F)oc2c(O)c(O)ccc12` [KH-3-160A], for which the concentration giving a half-maximal response (EC50) at E3 (CUL1) was 3.4 µM; on E3 (CUL4), around 20 µM; in the assay on cancer cells it was 21 µM.

For `COc1ccc2c(=O)c(-c3cnn(Cc4ccccc4Cl)c3)c(C(F)(F)F)oc2c1OC` [MSSM-RJD-MM-012, 3-(1-(2-chlorobenzyl)-1H-pyrazol-4-yl)-7,8-dimethoxy-2-(trifluoromethyl)-4H-chromen-4-one], the figures for the EC50 at E3 (CUL1), on E3 (CUL4) and in the assay on cancer cells were above 100 µM, above 10 µM and above 20 µM, respectively.

Take `O=c1c(-c2cnn(-c3cccc(Cl)c3)c2)c(C(F)(F)F)oc2c(O)c(O)ccc12` [KH-3-151]: the EC50 at E3 (CUL1) was 13 µM; at E3 (CUL4), around 14 µM; in the assay with cancer cells, 5 µM.

`O=c1c(-c2cnn(Cc3cc(F)ccc3C(F)(F)F)c2)c(C(F)(F)F)oc2c(O)c(O)ccc12` [MSSM-RJD-MM-028]: the EC50 is 7.3 µM on E3 (CUL1), around 10 µM on E3 (CUL4) and around 20 µM in the assay with cancer cells.

In the case of `N#Cc1ccc(-n2cc(-c3c(C(F)(F)F)oc4c(O)c(O)ccc4c3=O)cn2)cc1` [KH-3-152], the results for the EC50 on E3 (CUL1), at E3 (CUL4) and with cancer cells were 9 µM, above 14 µM and 30 µM, respectively.

In the case of `O=c1c(-c2cnn(Cc3ccccc3F)c2)c(C(F)(F)F)oc2c(O)c(O)ccc12` [MSSM-RJD-MM-022, 3-(1-(2-fluorobenzyl)-1H-pyrazol-4-yl)-7,8-dihydroxy-2-(trifluoromethyl)-4H-chromen-4-one], the EC50 at E3 (CUL1) is 30 µM; at E3 (CUL4), above 10 µM; with cancer cells, above 20 µM.

For the compound `O=c1c(Oc2ccccc2)c(C(F)(F)F)oc2c(O)c(O)c(Br)cc12` [[drawing 256]], on ROC1-CUL1 CTD [2] (setting [4]), the IC50 is 3.3 µM.

Turning to `Cc1cccc(Cn2cc(-c3c(C(F)(F)F)oc4c(O)c(O)ccc4c3=O)cn2)c1` [MSSM-RJD-MM-025, 7,8-dihydroxy-3-(1-(3-methylbenzyl)-1H-pyrazol-4-yl)-2-(trifluoromethyl)-4H-chromen-4-one], the EC50 was 3.9 µM on E3 (CUL1), above 10 µM at E3 (CUL4) and 10 to 20 µM in the assay with cancer cells.

As to `O=c1c(-c2cnn(Cc3ccccc3Cl)c2)c(C(F)(F)F)oc2c(O)c(O)ccc12` [MSSM-RJD-MM-015, 3-(1-(2-chlorobenzyl)-1H-pyrazol-4-yl)-7,8-dihydroxy-2-(trifluoromethyl)-4H-chromen-4-one], the EC50 was 8.2 µM on E3 (CUL1), above 10 µM at E3 (CUL4) and above 20 µM with cancer cells.

In the case of `O=c1c(-c2cnn(Cc3cc(C(F)(F)F)ccc3F)c2)c(C(F)(F)F)oc2c(O)c(O)ccc12` [MSSM-RJD-MM-026, 3-(1-(2-fluoro-5-(trifluoromethyl)benzyl)-1H-pyrazol-4-yl)-7,8-dihydroxy-2-(trifluoromethyl)-4H-chromen-4-one], the EC50 on E3 (CUL1) is 6.5 µM; on E3 (CUL4) it was above 10 µM; in the assay with cancer cells, above 20 µM.

Turning to `CCn1cc(-c2c(C(F)(F)F)oc3c(O)c(O)ccc3c2=O)cn1` [MSSM-RJD-MM-009, 3-(1-ethyl-1H-pyrazol-4-yl)-7,8-dihydroxy-2-(trifluoromethyl)-4H-chromen-4-one], the 50% effective concentration (EC50) on E3 (CUL1) was 6 µM; at E3 (CUL4), above 10 µM; with cancer cells, above 20 µM.
